This note sets out measurements from PMC9051106, “Structural insights into TRPV2 activation by small molecules” (Nature Communications, 2022).

Structures are written as SMILES. Several values for one entry are separate records, joined by “and”; a condition that tells them apart may be missing. Equal entries are not always repeated.

The target of assay [1] is T1, wildtype rat TRPV2 (Rattus norvegicus, UniProt Q9WUD2).
T1 sequence (Q9WUD2 1-761): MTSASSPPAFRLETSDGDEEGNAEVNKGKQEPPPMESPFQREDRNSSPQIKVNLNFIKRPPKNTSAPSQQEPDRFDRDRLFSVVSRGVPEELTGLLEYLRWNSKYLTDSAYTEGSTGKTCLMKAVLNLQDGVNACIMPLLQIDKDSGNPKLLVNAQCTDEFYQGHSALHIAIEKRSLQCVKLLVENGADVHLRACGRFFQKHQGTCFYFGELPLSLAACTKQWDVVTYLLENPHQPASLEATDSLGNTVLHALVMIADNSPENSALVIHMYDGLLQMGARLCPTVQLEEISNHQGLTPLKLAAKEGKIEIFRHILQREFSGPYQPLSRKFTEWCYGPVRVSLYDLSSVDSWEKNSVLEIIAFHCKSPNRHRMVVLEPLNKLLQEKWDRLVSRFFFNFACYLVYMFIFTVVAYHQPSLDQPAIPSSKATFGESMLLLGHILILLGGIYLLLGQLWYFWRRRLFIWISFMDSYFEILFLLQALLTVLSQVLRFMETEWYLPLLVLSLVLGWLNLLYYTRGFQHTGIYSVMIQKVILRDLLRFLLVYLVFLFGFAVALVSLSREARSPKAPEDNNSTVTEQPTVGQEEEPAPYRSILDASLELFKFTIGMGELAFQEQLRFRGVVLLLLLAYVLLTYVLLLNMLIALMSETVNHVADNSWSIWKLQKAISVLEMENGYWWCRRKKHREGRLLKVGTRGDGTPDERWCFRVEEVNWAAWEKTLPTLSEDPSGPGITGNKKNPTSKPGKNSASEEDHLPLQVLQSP
The assay is described as follows: Whole-cell patch recordings, current density with 2-APB alone and 2-APB co-applied with CBD. The class given is cell-based. Also noted: expressed in transfected cells; host or cells: HEK293T. As to conditions: for current density: Mean ± SEM, N = 7. The method, then:
(§1) Nanofectin (PAA, Pasching, Austria) was used to transfect HEK293T cells with WT rat TRPV2, Arg535Lys rat TRPV2, Arg539Lys rat TRPV2, His521Ala rat TRPV2, His521Asn rat TRPV2, His521Ala/Arg539Lys rat TRPV2, Thr522Ala rat TRPV2 and Tyr525Ala rat TRPV2. Mutants were generated according to the instructions of the manufacturer by site directed mutagenesis with the quick-change lightning site-directed mutagenesis kit (Aglient, Waldbronn, Germany). […] Cells were cultured at 37 °C with 5% CO2 in Dulbecco’s modified Eagle medium nutrient mixture F12 (DMEM/F12 Gibco/Invitrogen, Darmstadt, Germany) and supplemented with 10% fetal bovine serum, (Biochrom, Berlin, Germany).
(§2) Whole-cell voltage clamp was performed with an EPC10 USB HEKA amplifier (HEKA Electronik, Lamprecht, Germany), much as previously described. Signals were low passed at 1 kHz and sampled at 2–10 kHz. Patch pipettes were pulled from borosilicate glass tubes (TW150F-3; World Precision Instruments, Berlin, Germany) to give a resistance of about 3 MΩ. Cells were held at −60 mV and all recordings were performed at room temperature. The external solution contained: 140 mM NaCl, 5 mM KCl, 2 mM MgCl2, 5 mM EGTA, 10 mM glucose, and 10 mM HEPES, pH 7.4 (adjusted with NaOH). Calcium was omitted in order to avoid desensitization. The standard pipette solution contained: 140 mM KCl, 2 mM MgCl2, 5 mM EGTA and 10 mM HEPES, pH 7.4 (adjusted with KOH). A gravity-driven glass multi-barrel perfusion system was used to bath apply solutions. Data acquisition and off-line analyses required Patchmaster/Fitmaster software (HEKA Electronik, Lamprecht, Germany) and Origin 8.5.1 (Origin Lab, Northampton, MA, USA).

Assay [2] concerns the target His521Ala/Arg539Lys rat TRPV2 (Rattus norvegicus, UniProt Q9WUD2, H521A/R539K). The method, then:
as §1, §2

The target of another assay is His521Ala rat TRPV2 (Rattus norvegicus, UniProt Q9WUD2, H521A). The method, then:
as §1, §2

Another assay concerns the target Thr522Ala rat TRPV2 (Rattus norvegicus, UniProt Q9WUD2, T522A). The method, then:
as §1, §2

Another assay concerns the target His521Asn rat TRPV2 (Rattus norvegicus, UniProt Q9WUD2, H521N). As for the experimental part: as §1, §2
A further assay addresses Tyr525Ala rat TRPV2 (Rattus norvegicus, UniProt Q9WUD2, Y525A). As to conditions: with either 2-APB or heat. The method, then: as §1, §2
In another assay the target is Arg535Lys rat TRPV2 (Rattus norvegicus, UniProt Q9WUD2, R535K). As for the experimental part: as §1, §2
A further assay concerns the target Arg539Lys rat TRPV2 (Rattus norvegicus, UniProt Q9WUD2, R539K). As for the experimental part:
as §1, §2

In assay [3] the target is T1, wildtype rat TRPV2. The method, then: as §1, §2
Setting [4] is: HEK293T, held at −60 mV, mean ± S.E.M.

Sequence of His521Ala/Arg539Lys rat TRPV2 (Q9WUD2 whole entry H521A/R539K): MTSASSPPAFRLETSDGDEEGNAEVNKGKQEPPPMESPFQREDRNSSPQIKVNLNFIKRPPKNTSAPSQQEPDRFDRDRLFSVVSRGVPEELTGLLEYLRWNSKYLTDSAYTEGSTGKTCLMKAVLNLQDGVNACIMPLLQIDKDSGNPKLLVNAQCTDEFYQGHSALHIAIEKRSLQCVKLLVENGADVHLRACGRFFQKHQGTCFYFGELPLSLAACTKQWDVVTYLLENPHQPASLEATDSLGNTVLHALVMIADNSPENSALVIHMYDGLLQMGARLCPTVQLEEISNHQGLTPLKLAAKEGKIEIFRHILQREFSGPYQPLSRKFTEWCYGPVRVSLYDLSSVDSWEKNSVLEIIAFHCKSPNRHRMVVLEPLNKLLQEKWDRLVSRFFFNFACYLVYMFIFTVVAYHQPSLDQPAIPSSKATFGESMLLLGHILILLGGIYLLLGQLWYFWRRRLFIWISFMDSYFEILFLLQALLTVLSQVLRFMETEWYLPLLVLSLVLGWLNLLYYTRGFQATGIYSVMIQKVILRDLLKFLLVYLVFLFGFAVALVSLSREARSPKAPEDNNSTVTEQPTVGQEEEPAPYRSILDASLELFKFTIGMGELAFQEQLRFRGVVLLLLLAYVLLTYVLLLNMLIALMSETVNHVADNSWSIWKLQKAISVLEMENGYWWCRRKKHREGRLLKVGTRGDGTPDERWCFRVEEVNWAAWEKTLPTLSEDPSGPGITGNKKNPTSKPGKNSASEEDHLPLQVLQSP
Sequence of Arg539Lys rat TRPV2 (Q9WUD2 whole entry R539K): as the sequence (Q9WUD2 whole entry H521A/R539K) above, with A521H counted along it
Sequence of His521Asn rat TRPV2 (Q9WUD2 whole entry H521N): as the sequence (Q9WUD2 whole entry H521A/R539K) above, with A521N, K539R counted along it
Sequence of His521Ala rat TRPV2 (Q9WUD2 whole entry H521A): as the sequence (Q9WUD2 whole entry H521A/R539K) above, with K539R counted along it
Sequence of Arg535Lys rat TRPV2 (Q9WUD2 whole entry R535K): as the sequence (Q9WUD2 whole entry H521A/R539K) above, with A521H, R535K, K539R counted along it
Sequence of Thr522Ala rat TRPV2 (Q9WUD2 whole entry T522A): as the sequence (Q9WUD2 whole entry H521A/R539K) above, with A521H, T522A, K539R counted along it
Sequence of Tyr525Ala rat TRPV2 (Q9WUD2 whole entry Y525A): as the sequence (Q9WUD2 whole entry H521A/R539K) above, with A521H, Y525A, K539R counted along it

The Hill coefficient is a measure of the steepness of the concentration-response curve. A word on the EC50: it is the midpoint of the concentration-response curve. With `NCCOB(c1ccccc1)c1ccccc1` [2-APB, 2-aminoethoxydiphenyl borate], the current density was 0.98 ± 0.1 pA/pF on wildtype rat TRPV2 [1] (2-APB alone 10 μM), 2.8 ± 0.3 pA/pF on wildtype rat TRPV2 [1] (2-APB alone 30 μM) and 24.9 ± 3.7 pA/pF on wildtype rat TRPV2 [1] (2-APB alone 100 μM). Also, the current at wildtype rat TRPV2 [1] (2-APB alone 10 µM, single cell) was 12.35 and 14.18 and 12.95 and 20 and 11.76 and 11.18. Moreover, the Hill coefficient in assay [2] (His521Ala/Arg539Lys) is 5.2 ± 0.6; at His521Ala rat TRPV2, 3.3 ± 0.3; on Thr522Ala rat TRPV2 it was 3.0 ± 0.3; on His521Asn rat TRPV2, 4.3 ± 0.3; on Arg535Lys rat TRPV2, 3.3 ± 0.5; at Arg539Lys rat TRPV2 (Arg539Lys), 5.6 ± 1.1. This compound registered a Hill coefficient at wildtype rat TRPV2 [3] (wildtype) of 3.0 ± 0.2. Moreover, the EC50 in assay [2] (His521Ala/Arg539Lys, HEK293T, held at −60 mV, mean ± S.E.M.) amounted to 1750 ± 125 µM; on His521Ala rat TRPV2 (setting [4]), 991 ± 131 µM; at Thr522Ala rat TRPV2 (setting [4]), 232 ± 43 µM; at His521Asn rat TRPV2 (HEK293T, held at −60 mV), 742 ± 14 µM; on Arg535Lys rat TRPV2 (setting [4]) it was 79 ± 11 µM; at Arg539Lys rat TRPV2 (Arg539Lys, HEK293T, held at −60 mV, mean ± S.E.M.), 683 ± 78 µM. On wildtype rat TRPV2 [3] (wildtype rat TRPV2, HEK293T, held at −60 mV, mean ± S.E.M.), this compound returned an EC50 of 322 ± 27 µM. In addition, the “decrease in 2-APB sensitivity” value in assay [2] (double mutant compared to the wildtype TRPV2) is reported as “fivefold”. In addition, the membrane currents evoked result at Tyr525Ala rat TRPV2 was “could not evoke any membrane currents”. Also, the “Current (minus Leak)” value at Arg539Lys rat TRPV2 (rTRPV2 - R539K, 2-APB 50µM, single cell) is 6.3 and 7.05 and 6.6.
